Data from PMC12794336, “Unconventional chalcogen-containing azolylidene metal complexes as potential anticancer therapeutics” (Chemical Science, 2025).

Experiments:
[1] = set-up: method as in PMID 21082862; settings: cell line not stated; read-out: Cytotoxicity reported in the literature; cited from earlier work
[2] = n-octanol/water; cited from earlier work
[3] = tested on: A2780cis cells with acquired resistance to cisplatin; test: Cytotoxicity, PrestoBlue assay, A2780cis; type: cell-based, human; settings: 72 h, PrestoBlue; read-out: IC50 (µM) after 72 h, A2780cis
Procedure: (§1) counterpart, A2780cis, were procured from the European Collection of Cell
(§2) (ThermoFisher, USA) base medium supplemented with 10% Foetal Bovine
(§3) Serum (FBS; Sigma, Germany) and 1% of Penicillin-Streptomycin
(§4) (ThermoFisher, USA). Additionally, A2780cis cell line was cultured in the
(§5) drug. The human embryonic kidney cell line, HEK293T, and HeLa cell line were
(§6) obtained from American Type Culture Collection (ATCC, USA) and were cultured
(§7) in DMEM GlutaMAX (ThermoFisher, USA) base medium, supplemented with
(§8) 10% FBS and 1% of Penicillin-Streptomycin. All cell lines were maintained in a
(§9) humidified incubator at37 °C and 5% CO2.
(§10) 4.2. Cytotoxicity studies
(§11) cells/mL (A2780cis and HEK293T) was dispensed into flat bottom 96-well plates
(§12) and allowed to attach overnight. On the next day, 10 mM stock solutions of the
(§13) tested compounds were prepared in DMSO, then diluted with media to the final
(§14) concentration range of 0 - 100 µM and applied to the cells; 0.1% DMSO final
(§15) solution and 10 µM final concentration gambogic acid were used as negative and
(§16) positive controls, respectively. After 72 h incubation in a humidified incubator
(§17) under 5% CO2 at 37 °C, PrestoBlue™ cell viability reagent (Cat. No. A13262,
(§18) Invitrogen, USA) was added to cultures at a 1:10 ratio according to the
(§19) manufacturer instructions, and samples were incubated for 1.5 h. Fluorescence
(§20) at 560/590 nm was detected with Tecan Infinite 500 microplate reader (Tecan,
(§21) Switzerland). Three wells were assessed for each concentration of the tested
(§22) compounds and three independent experiments were performed. Non-linear
(§23) regression and IC50 value calculation were performed in GraphPad Prism 9 using
(§24) the build-in function “Dose response- Inhibition”.

[4] = tested on: A2780 ovarian cancer cell line; test: Cytotoxicity, PrestoBlue assay, A2780; type: cell-based, human; settings: 72 h, PrestoBlue; read-out: IC50 (µM) after 72 h, A2780
Procedure: as §1, §2, §3, §4, §5, §6, §7, §8, §9, §10, §11, §12, §13, §14, §15, §16, §17, §18, §19, §20, §21, §22, §23, §24

[5] = tested on: non-cancerous human embryonic kidney HEK293T cells; test: Cytotoxicity, PrestoBlue assay, HEK293T; type: cell-based; settings: 72 h, PrestoBlue; read-out: IC50 (µM) after 72 h, HEK293T
Procedure: as §1, §2, §3, §4, §5, §6, §7, §8, §9, §10, §11, §12, §13, §14, §15, §16, §17, §18, §19, §20, §21, §22, §23, §24

[6] = tested on: A2780, A2780cis and HEK293T cell lines; test: Cytotoxicity stated jointly for all three cell lines; type: cell-based, human; settings: HEK293T together, 72 h
Procedure: as §1, §2, §3, §4, §5, §6, §7, §8, §9, §10, §11, §12, §13, §14, §15, §16
under 5% CO2 at 37 °C, PrestoBlue™ cell viability reagent (Cat. No. A13262, […]
as §19, §20
Switzerland). Three wells were assessed for each concentration of the tested […]

| Structure (SMILES) | IC50 [1] [µM] | logPOW [2] | IC50 [3] [µM] | IC50 [4] [µM] | IC50 [5] [µM] | IC50 [6] [µM] |
| --- | --- | --- | --- | --- | --- | --- |
| CCn1[c]([Au-][Cl])[n+](CC)c2ccccc21 [same complex bearing a chlorido ligand] | 6.4 ± 2 | – | – | – | – | – |
| Cc1ccc(C(C)C)cc1.[Cl][Ru]([Cl])[PH]12CN3CN(CN(C3)C1)C2 [RAPTA-C, reference compound] | – | −1.8 (ref. [64]) | > 100 | > 100 | > 100 | > 100 |
